From patent US7507727B2, “Substituted quinobenzoxazine analogs and methods of using thereof” (Cylene Pharmaceuticals, Inc., priority 2003, dated 2009)
“Also recorded” adds a separate entry of the source.

Columns and labels:
[1] = test system: HCT-116 xenograft; assay: HCT-116 colorectal cancer xenograft model; type: in vivo; conditions: HCT-116; 10, 15 and 20 mg/kg; FIG. 8
Experimental: Two xenograft models for inoculation were harvested and diluted to a concentration of 50×10^6 cells/ml or 100×10^6 cells/ml. Four to six week old nude mice were injected with 0.1 ml of the cell suspension containing between 5×10^6 and 10×10^6 cells. When tumors are of a suitable size compound dosing is commenced. Tumor sizes are measured throughout the treatment period with calipers and body weights also measured.
CX-3543 was tested against a number of cancer xenograft models to determine the in vivo efficacy. HCT-116 and PC-3 tumor-bearing nu/nu or MiaPaCa tumor-bearing SCID mice were administered reference and testing compounds on schedules indicated in figure legends. Tumor measurements were taken with calipers every other day or twice a week starting from the first day of dosing and body weights were measured at the same time points. Tumor volumes were calculated from the standard formula, W^2×L/2. c-MYC mRNA expression was measured with QPCR from all tumor samples following the final dose. 18S ribosomal RNA was used as a housekeeper and also quantified with QPCR.

[2] = test system: panel of cancer cell-lines; assay: MTS cell survival assay, panel of cancer cell-lines; type: cell-based; conditions: for IC50: MTS
Experimental: The antitumor range of action of CX-3543 was tested in vitro using a panel of cancer cell-lines and evaluated using an MTS cell survival assay. Cells were exposed to CX3543 at various concentrations over a four day period, and IC50 values were calculated. Generally, 2,000 to 5,000 cells were seeded in each well of a 96-well plate and incubated overnight. A serial dilution of testing compounds was added to cells and further incubated for 4 days at 37° C., in a 5% CO2 humidified incubator. The survival cell numbers were evaluated by the MTS method as described in the manufacturer's protocol (Promega). […] In particular examples, IC50 values were measured by Alamar Blue.

[3] = Subacute study of intravenously administered CX-3543 in rats (safety and tolerance); type: in vivo
Experimental: This study determines the safety and tolerance of CX-3543 at three dose levels administered intravenously once daily to rats for five consecutive days. Safety parameters will be monitored through observation, clinical pathology, and microscopic histopathology assessments. Selected animals will also undergo blood sample collection for pharmacokinetic/toxicokinetic evaluation.
The study was conducted using three (3) test and one (1) control article groups. The high and low test article groups and the control group consisted of 28 animals each and were used to assess tolerance. The medium test article group consisted of 64 animals of which 28 animals were used to assess tolerance and 36 animals were used to determine the level of test article in the blood at various time points after the first and fifth doses in the PK/TK portion of the study. The control article was the solution (5% dextrose in water; D5W) used to dilute the test article prior to administration and was administered at the same volume as the high dose test article group. The test article dosage levels for this study were 24, 7.6, and 2.4 mg/kg. Test and control articles were administered by intravenous (IV) injection into a tail vein over one minute on five consecutive days.
Blood samples for test article blood level analysis were taken as follows. […]

[4] = biological target: c-Myc template DNA (c-myc quadruplex); assay: Quadruplex binding / stop assay (Taq polymerase arrest, capillary electrophoresis); conditions: read-out: IC50 value in the stop assay; arrest product/full-length product ratio 1:1; FIG. 2

## CN1CCCC1CCNC(=O)c1cn2c3c(c(N4CCC(c5cnccn5)C4)c(F)cc3c1=O)Oc1cc3ccccc3cc1-2 (stereo not shown) [CX-3543]
[1]
  tumor growth inhibition: inhibits tumor growth; also recorded: significant tumor growth inhibition
[2]; 96 h, PC3 (Prostate), 4 days
  IC50: 3200 nM
[2]; Homo sapiens, 786-0, 96 h, 786-O, 4 days
  IC50: 2100 nM
[2]; Homo sapiens, 96 h, A549, 4 days
  IC50: 2900 nM
[2]; Homo sapiens, 96 h, HCT-116 (Colorectal), 4 days
  IC50: 3300 nM
[2]; Homo sapiens, 96 h, HT-29, 4 days
  IC50: 5500 nM
[2]; Homo sapiens, 96 h, HeLa (cervical), 4 days
  IC50: 3300 nM
[2]; Homo sapiens, 96 h, HepG2, 4 days
  IC50: 2500 nM
[2]; Homo sapiens, 96 h, MDA-MB-231 (Breast), 4 days
  IC50: 2400 nM
[2]; Homo sapiens, 96 h, MDA-MB-468 (Breast), 4 days
  IC50: 1500 nM
[2]; Homo sapiens, 96 h, Ramos (Burkitt's Lymphoma), 4 days
  IC50: 300 nM
[2]; Homo sapiens, MIA PaCa-2, 96 h, MiaPaca, 4 days
  IC50: 2800 nM
[2]; four day exposure
  IC50 in MTS assays over a broad range of tumor types: submicromolar to single digit micromolar
[3]; five consecutive daily IV doses, mid- and low-dose levels (7.6 and 2.4 mg/kg)
  tolerance: toxicologically well tolerated
[3]; high dose animals (24 mg/kg), five day course
  mortality: approximately 5%
[4]
  IC50: 1000 nM
